Reference: patent US20020151522A1, “Regulation of weight” (priority 2001, published 2002)
Read-outs that look alike come from different tables or passages of the source.

Assays:
[1] = Body weight gain over 14 days after unilateral fimbria-fornix lesion with daily intracerebroventricular infusion; type: in vivo, rat; details: male Wistar rats, fimbria-fornix lesion/cannulation; icv 2 μL daily for 14 days; GPE 3 μg/day, IGF-I 20 μg/day, NGF 1 μg/day
Source text: A group of male Wistar rats weighing 174-193 g (University of Auckland, Animal Resources Unit) were divided randomly into the following groups: “control”, “sham”, “vehicle”, “GPE”, “IGF-I”, and “NGF”, depending on the treatment each animal was to undergo. “Control” animals were weighed at the first and last time points and were not treated or handled at any other time. “Sham” animals underwent a sham surgery of anesthesia, incision through the scalp skin, drill hole through the skull, bone wax to seal the drill hole, and sutures for the skin incision. They were then handled daily in mock infusions to mimic handling of animals that received lesions and intracerebroventricular infusions.
“Vehicle”, “GPE”, “IGF-I”, and “NGF” animals were anaesthetized with 75 mg/Kg sodium pentobarbital and positioned in a stereotaxic apparatus (Kopf Instruments, USA), and underwent unilateral fimbria-fomix lesions to lesion septal cholinergic neurons and chronic cannula implantation into the left lateral cerebral ventricle. Fomix-fimbria lesions were performed by transecting the fimbria-fornix projection using a specialized retractable wire Scouten knife (Kopf Instruments) designed to minimize tissue damage except at the required lesion site. Anaesthetized animals received an incision through their scalp skin and a small drill hole was made in the skull at the stereotaxic coordinates anterior-posterior (AP) axis −1.0 mm from the bregma and medial-lateral (ML) axis +2.5 mm from midline (left side), from an atlas of the rat brain (Paxinos et al. (1986), “The rat brain in stereotaxic coordinates”, Academic Press, London). The knife was lowered into the brain through the drill hole to the coordinate +6.0 mm ventral to the skull on the dorsal-ventral (DV) axis. The knife blade was then extended 2.5 mm toward midline at an angle of 30° caudal to the bregma. The knife, with blade extended, was then raised 4.5 mm dorsally to axotomize the fimbriafomix fibres. The blade was then retracted, the knife lowered 4.5 mm to its original coordinate, and the process was repeated. […]

[2] = Weight gain in human patient suffering from a head injury, central administration for 14 days; type: in vivo
Protocol: GPE in a dose of 10 μg/Kg/day is administered via lateral cerebroventricular injection into the brain of a human patient suffering from a head injury to promote weight gain to normal levels. Alternatively, a GPE analog is administered. Treatment is commenced as soon as possible after the head injury and then for 14 days thereafter.
A GPE analog in a dose of 20 μg/Kg/day is administered via focal injection into the lateral cerebral ventricle of a human patient suffering from a head injury to promote weight gain to normal levels. Alternatively, GPE is administered. Treatment is commenced as soon as possible after the head injury and then for 14 days thereafter.
GPE in a dose of 5 μg/Kg/day is administered via a surgically inserted shunt into the lateral cerebral ventricle of a human patient suffering from a head injury to promote weight gain to normal levels. Alternatively, a GPE analog is administered. Treatment is commenced as soon as possible after the head injury and then for 14 days thereafter.

[3] = administered into the brain, adult rats after transient forebrain ischemia; cited from earlier work
[4] = intravenous, humans after moderate to severe head injury; cited from earlier work
[5] = intracerebroventricular, patients with Alzheimer's disease; cited from earlier work
[6] = infused in the brain of adult rats with partial or full lesions, e.g. partial fimbria-fornix transection; cited from earlier work
[7] = administered to the brain of normal, unlesioned rats; cited from earlier work

## NCC(=O)N1CCC[C@H]1C(=O)N[C@@H](CCC(=O)O)C(=O)O [GPE, glycyl-L-prolyl-L-glutamic acid]
[1]
  weight gain over the 14 days: the normally expected weight gain occurred
[2]; 5 μg/Kg/day via surgically inserted shunt into the lateral cerebral ventricle
  weight gain in the patient: Normal weight gain is promoted
[2]; 10 μg/Kg/day via lateral cerebroventricular injection
  weight gain in the patient: Normal weight gain is promoted
[2]; 20 μg/Kg/day via focal injection into the lateral cerebral ventricle
  weight gain in the patient: Normal weight gain is promoted

## IGF-I: insulin-like growth factor I
[1]
  weight gain over the 14 days: minimal weight gain
[3]
  effect on body weight: cause weight gain
[4]
  effect on body weight: cause weight gain

## NGF: Nerve growth factor
[1]
  weight gain over the 14 days: no weight gain
[5]
  effect on body weight: marked weight reduction
[6]
  effect on body weight: either decrease normal body weight gain or cause weight loss
[7]
  effect on body weight: cause weight loss

## bFGF: basic fibroblast growth factor
[6]
  effect on body weight: either decrease normal body weight gain or cause weight loss

B1: GDNF: glial-derived neurotrophic factor (protein, UniProt P39905 78-211, looked up)
Glial cell line-derived …: SPDKQMAVLPRRERNRQAAAANPENSRGKGRRGQRGKNRGCVLTAIHLNVTDLGLGYETKEELIFRYCSGSCDAAETTYDKILKNLSRNRRLVSDKVGQACCRPIAFDDDLSFLDDNLVYHILRKHSAKRCGCI
[6]
  effect on body weight: either decrease normal body weight gain or cause weight loss
[7]
  effect on body weight: cause weight loss

B2: BDNF: brain-derived neurotrophic factor (protein, UniProt P23560 19-247, looked up)
Neurotrophic factor BDNF …: APMKEANIRGQGGLAYPGVRTHGTLESVNGPKAGSRGLTSLADTFEHVIEELLDEDQKVRPNEENNKDADLYTSRVMLSSQVPLEPPLLFLLEEYKNYLDAANMSMRVRRHSDPARRGELSVCDSISEWVTAADKKTAVDMSGGTVTVLEKVPVSKGQLKQYFYETKCNPMGYTKEGCRGIDKRHWNSQCRTTQSYVRALTMDSKKRIGWRFIRIDTSCVCTLTIKRGR
[6]
  effect on body weight: either decrease normal body weight gain or cause weight loss
[7]
  effect on body weight: cause weight loss
